The record followed here is the NIST ThermoML archive (doi:10.1016/j.jct.2013.05.011).

Numbers after ± are expanded uncertainties.

Data set [1] can be described thus: activity coefficient (dimensionless); of the first substance listed, at infinite dilution; xn = mol fraction of the nth substance listed. The settings on record: 101 kPa, Liquid, Chromatography, x1 = 0.
The nature of data set [2]: refractive index (Na D-line) (dimensionless). Particulars: 293.15 K; 101.33 kPa; Liquid; Standard Abbe refractometry.
For data set [3] the following is noted: 288.15 K; 101.33 kPa; Liquid; Vibrating tube method.

Take `C=CCCCCC` [1-heptene] + OCCOCCO: the activity coefficient in data set [1] (333.2 K) is 72.3 ± 5; in data set [1] (348.2 K), 66.6 ± 4.6; in data set [1] (363.2 K), 60.5 ± 4.1.
Turning to `C=CCCCCC` [1-heptene] + OCCOCCOCCO, the activity coefficient in data set [1] (333.2 K) came out at 34.4 ± 2.4; in data set [1] (348.2 K) it was 30.6 ± 2.1; in data set [1] (363.2 K), 27.5 ± 1.9.
For `C#CCCCCC` [1-heptyne] + OCCOCCO the same measures were 20.3 ± 1.4, 20.8 ± 1.4 and 19.3 ± 1.3.
In the case of `C#CCCCCC` [1-heptyne] + OCCOCCOCCO, the activity coefficient in data set [1] (333.2 K) is 10.2 ± 0.7; in data set [1] (348.2 K), 9.04 ± 0.62; in data set [1] (363.2 K), 8.99 ± 0.61.
As to `C#CCCCC` [1-hexyne] + OCCOCCO, the activity coefficient was 14.1 ± 0.96 in data set [1] (333.2 K), 14.6 ± 1 in data set [1] (348.2 K) and 13.8 ± 0.94 in data set [1] (363.2 K).
On to `C#CCCCC` [1-hexyne] + OCCOCCOCCO, for which the activity coefficient in data set [1] (333.2 K) is 7.01 ± 0.48; in data set [1] (348.2 K), 7.03 ± 0.48; in data set [1] (363.2 K), 6.69 ± 0.46.
In the case of `C#CCCCCCC` [1-octyne] + OCCOCCO, the activity coefficient in data set [1] (333.2 K) is 29.9 ± 2; in data set [1] (348.2 K) it was 29.7 ± 2; in data set [1] (363.2 K), 27 ± 1.9.
For the compound `C#CCCCCCC` [1-octyne] + OCCOCCOCCO, the activity coefficient in data set [1] (333.2 K) was 14.4 ± 0.98; in data set [1] (348.2 K) it was 12.8 ± 0.87; in data set [1] (363.2 K), 12.2 ± 0.83.
For `C=CCCC` [1-pentene] + OCCOCCO the same measures were 35.3 ± 4.4, 32.9 ± 4.1 and 27.6 ± 3.4.
For `C=CCCC` [1-pentene] + OCCOCCOCCO the same measures were 17.5 ± 2.2, 16.1 ± 2 and 14.8 ± 1.8.
Regarding `C#CCCC` [1-pentyne] + OCCOCCO, the activity coefficient in data set [1] (333.2 K) was found to be 9.93 ± 1.2; in data set [1] (348.2 K) it was 10.5 ± 1.3; in data set [1] (363.2 K) it was 10.2 ± 1.3.
For `C#CCCC` [1-pentyne] + OCCOCCOCCO the same measures were 5.07 ± 0.63, 5.11 ± 0.64 and 5.01 ± 0.62.
For the compound `c1ccccc1` [benzene] + OCCOCCO, the activity coefficient is 7.33 ± 0.5 in data set [1] (333.2 K), 7.21 ± 0.49 in data set [1] (348.2 K) and 7.05 ± 0.48 in data set [1] (363.2 K).
For `c1ccccc1` [benzene] + OCCOCCOCCO the same measures were 3.91 ± 0.27, 3.86 ± 0.26 and 3.36 ± 0.23.
Take `C1CCCCCC1` [cycloheptane] + OCCOCCO: the results for the activity coefficient in data set [1] (333.2 K), in data set [1] (348.2 K) and in data set [1] (363.2 K) were 52.4 ± 3.6, 47.4 ± 3.2 and 42.1 ± 2.9, respectively.
With `C1CCCCCC1` [cycloheptane] + OCCOCCOCCO, the activity coefficient amounted to 29.6 ± 2 in data set [1] (333.2 K), 22.3 ± 1.5 in data set [1] (348.2 K) and 19.8 ± 1.4 in data set [1] (363.2 K).
For `C1CCCCC1` [cyclohexane] + OCCOCCO the same measures were 42.7 ± 2.9, 39.2 ± 2.7 and 34.9 ± 2.4.
As to `C1CCCCC1` [cyclohexane] + OCCOCCOCCO, the results for the activity coefficient in data set [1] (333.2 K), in data set [1] (348.2 K) and in data set [1] (363.2 K) were 21.1 ± 1.4, 18.6 ± 1.3 and 16.8 ± 1.1, respectively.
On to `C1CCCCCCC1` [cyclooctane] + OCCOCCO, for which the activity coefficient was 70.7 ± 4.8 in data set [1] (333.2 K), 61.3 ± 4.2 in data set [1] (348.2 K) and 52.2 ± 3.6 in data set [1] (363.2 K).
For `C1CCCCCCC1` [cyclooctane] + OCCOCCOCCO the same measures were 35.3 ± 2.4, 27.2 ± 1.9 and 23.9 ± 1.6.
For `C1CCCC1` [cyclopentane] + OCCOCCO the same measures were 30.9 ± 2.1, 27.6 ± 1.9 and 25.9 ± 1.8.
For `C1CCCC1` [cyclopentane] + OCCOCCOCCO the same measures were 15.2 ± 1, 14 ± 0.95 and 12.7 ± 0.87.
Turning to `OCCOCCO` [diethylene glycol], in data set [2], the refractive index was determined as 1.4471 ± 0.0004. In addition, in data set [3], the mass density was 1120.05 ± 0.28 kg/m3.
As for `CCO` [ethanol] + OCCOCCO, the activity coefficient in data set [1] (333.2 K) stood at 1.47 ± 0.1; in data set [1] (348.2 K), 1.46 ± 0.1; in data set [1] (363.2 K), 1.46 ± 0.1.
Consider `CCO` [ethanol] + OCCOCCOCCO, for which the activity coefficient turned out to be 1.18 ± 0.08 in data set [1] (333.2 K), 1.15 ± 0.07 in data set [1] (348.2 K) and 1.12 ± 0.07 in data set [1] (363.2 K).
With `CCc1ccccc1` [ethylbenzene] + OCCOCCO, the activity coefficient amounted to 16.8 ± 1.1 in data set [1] (333.2 K), 16.1 ± 1.1 in data set [1] (348.2 K) and 15.2 ± 1 in data set [1] (363.2 K).
Turning to `CCc1ccccc1` [ethylbenzene] + OCCOCCOCCO, the activity coefficient in data set [1] (333.2 K) came out at 8.63 ± 0.59; in data set [1] (348.2 K), 8.21 ± 0.56; in data set [1] (363.2 K), 7.86 ± 0.54.
For `CCCCCCC` [heptane] + OCCOCCO the same measures were 131 ± 9, 122 ± 8.4 and 95.4 ± 6.5.
For `CCCCCCC` [heptane] + OCCOCCOCCO the same measures were 62.3 ± 4.3, 52.3 ± 3.6 and 43.7 ± 3.
For `C=CCCCC` [hex-1-ene] + OCCOCCO the same measures were 50.7 ± 3.5, 47.3 ± 3.2 and 38.9 ± 2.7.
For the compound `C=CCCCC` [hex-1-ene] + OCCOCCOCCO, the figures for the activity coefficient in data set [1] (333.2 K), in data set [1] (348.2 K) and in data set [1] (363.2 K) were 24.6 ± 1.7, 22.7 ± 1.6 and 20.4 ± 1.4, respectively.
`CCCCCC` [hexane] + OCCOCCO: the values for the activity coefficient in data set [1] (333.2 K), in data set [1] (348.2 K) and in data set [1] (363.2 K) were 95.7 ± 6.6, 84 ± 5.8 and 82.4 ± 5.6, respectively.
Consider `CCCCCC` [hexane] + OCCOCCOCCO, for which the activity coefficient in data set [1] (333.2 K) came to 45.8 ± 3.1; in data set [1] (348.2 K) it was 40.3 ± 2.8; in data set [1] (363.2 K) it was 35.1 ± 2.4.
For `CO` [methanol] + OCCOCCO the same measures were 0.988 ± 0.062, 1.01 ± 0.06 and 1.02 ± 0.06.
As for `CO` [methanol] + OCCOCCOCCO, the activity coefficient was found to be 0.788 ± 0.051 in data set [1] (333.2 K) and 0.787 ± 0.051 in data set [1] (348.2 K).
Regarding `CCCCCCCCC` [nonane] + OCCOCCO, the activity coefficient in data set [1] (333.2 K) is 264 ± 18; in data set [1] (348.2 K) it was 230 ± 16; in data set [1] (363.2 K), 193 ± 13.
For `CCCCCCCCC` [nonane] + OCCOCCOCCO the same measures were 137 ± 9.4, 98.9 ± 6.8 and 83.1 ± 5.7.
For `C=CCCCCCC` [oct-1-ene] + OCCOCCO the same measures were 101 ± 6.9, 93.5 ± 6.4 and 82.6 ± 5.7.
Regarding `C=CCCCCCC` [oct-1-ene] + OCCOCCOCCO, the activity coefficient in data set [1] (333.2 K) came to 55.9 ± 3.8; in data set [1] (348.2 K) it was 41.8 ± 2.9; in data set [1] (363.2 K), 36.8 ± 2.5.
For `CCCCCCCC` [octane] + OCCOCCO the same measures were 188 ± 13, 168 ± 12 and 146 ± 10.
For `CCCCCCCC` [octane] + OCCOCCOCCO the same measures were 103 ± 7.1, 74 ± 5.1 and 62.9 ± 4.3.
For `CCCCC` [pentane] + OCCOCCO the same measures were 70.2 ± 8.7, 53.8 ± 6.7 and 54.2 ± 6.7.
`CCCCC` [pentane] + OCCOCCOCCO: the activity coefficient in data set [1] (333.2 K) worked out at 33.7 ± 4.2; in data set [1] (348.2 K), 30.8 ± 3.8; in data set [1] (363.2 K) it was 23.2 ± 2.9.
For `CCCO` [propan-1-ol] + OCCOCCO the same measures were 1.8 ± 0.12, 1.77 ± 0.12 and 1.74 ± 0.12.
In the case of `CCCO` [propan-1-ol] + OCCOCCOCCO, the values for the activity coefficient in data set [1] (333.2 K), in data set [1] (348.2 K) and in data set [1] (363.2 K) were 1.38 ± 0.09, 1.34 ± 0.09 and 1.31 ± 0.09, respectively.
For `CC(C)O` [propan-2-ol] + OCCOCCO the same measures were 1.79 ± 0.12, 1.77 ± 0.12 and 1.74 ± 0.12.
In the case of `CC(C)O` [propan-2-ol] + OCCOCCOCCO, the results for the activity coefficient in data set [1] (333.2 K), in data set [1] (348.2 K) and in data set [1] (363.2 K) were 1.45 ± 0.1, 1.4 ± 0.09 and 1.38 ± 0.09, respectively.
For `Cc1ccccc1` [toluene] + OCCOCCO the same measures were 11.2 ± 0.77, 10.9 ± 0.75 and 10.5 ± 0.72.
Regarding `Cc1ccccc1` [toluene] + OCCOCCOCCO, the activity coefficient was 5.88 ± 0.4 in data set [1] (333.2 K), 5.73 ± 0.39 in data set [1] (348.2 K) and 5.55 ± 0.38 in data set [1] (363.2 K).
Consider `OCCOCCOCCO` [triethylene glycol], for which the refractive index in data set [2] was found to be 1.4563 ± 0.0004. Further, in data set [3], the mass density is given as 1127.37 ± 0.15 kg/m3.

Broadly, the refractive index is the speed of light in vacuum divided by its phase velocity in the sample. A word on the mass density: it is the mass of a sample divided by its volume.
